ChEMBL document CHEMBL1201862, “PubChem BioAssay data set” (2004)
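Cultured in 96-well plates, cells were exposed to test compound for 48 hours across five concentrations. At the GI50, growth is halved.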 Calls of active or inactive are those of the source. Rule as the data show it: active = GI50 up to about 1.1 µM and inactive = higher.

How the values were obtained:
Assay in all cases: NCI tumour cell line growth inhibition, 48 h
786-0 = tested on: 786-0
EKVX = tested on: EKVX
HCC 2998 = tested on: HCC 2998
K562 = tested on: K562
KM12 = tested on: KM12
M14 = tested on: M14
MOLT-4 = tested on: MOLT-4
NCI-H23 = tested on: NCI-H23
OVCAR-3 = tested on: OVCAR-3
OVCAR-4 = tested on: OVCAR-4
SF-295 = tested on: SF-295
SF-539 = tested on: SF-539
SK-MEL-28 = tested on: SK-MEL-28
SW-620 = tested on: SW-620
T47D = tested on: T47D
U-251 = tested on: U-251
UACC-62 = tested on: UACC-62
SK-MEL-2 = tested on: SK-MEL-2
HOP-92 = tested on: HOP-92

Structure (SMILES) | GI50 (786-0) | GI50 (EKVX) | GI50 (HCC 2998) | GI50 (K562) | GI50 (KM12) | GI50 (M14) | GI50 (MOLT-4) | GI50 (NCI-H23) | GI50 (OVCAR-3) | GI50 (OVCAR-4) | GI50 (SF-295) | GI50 (SF-539) | GI50 (SK-MEL-28) | GI50 (SW-620) | GI50 (T47D) | GI50 (U-251) | GI50 (UACC-62) | GI50 (SK-MEL-2) | GI50 (HOP-92)
CCOC(=O)/C(=C\c1c(C)[nH]c2ccccc12)P(=O)(OCC)OCC | > 100 µM (inactive) | > 100 µM (inactive) | > 100 µM (inactive) | > 100 µM (inactive) | > 100 µM (inactive) | > 100 µM (inactive) | > 100 µM (inactive) | > 100 µM (inactive) | > 100 µM (inactive) | > 100 µM (inactive) | > 100 µM (inactive) | > 100 µM (inactive) | > 100 µM (inactive) | > 100 µM (inactive) | > 100 µM (inactive) | > 100 µM (inactive) | > 100 µM (inactive) | – | –
CCOC(=O)/C(=C/NC(=S)Nc1c(CC)cccc1C(C)(C)C)C(=O)c1ccccc1 | > 100 µM (inactive) | > 100 µM (inactive) | > 100 µM (inactive) | 42.2 µM (inactive) | > 100 µM (inactive) | > 100 µM (inactive) | > 100 µM (inactive) | > 100 µM (inactive) | – | > 100 µM (inactive) | > 100 µM (inactive) | > 100 µM (inactive) | > 100 µM (inactive) | > 100 µM (inactive) | > 100 µM (inactive) | > 100 µM (inactive) | > 100 µM (inactive) | > 100 µM (inactive) | –
CCCOc1ccc(-c2nc(-c3ccc(/N=C/c4ccc(N(CCOS(C)(=O)=O)CCOS(C)(=O)=O)cc4C)cc3)cs2)cc1 | 3.35 µM (inactive) | 17.6 µM (inactive) | 12 µM (inactive) | 22.5 µM (inactive) | 13.6 µM (inactive) | 16.8 µM (inactive) | 5.35 µM (inactive) | 10.1 µM (inactive) | 18.2 µM (inactive) | 34.1 µM (inactive) | 3.73 µM (inactive) | 12.1 µM (inactive) | 67.9 µM (inactive) | 25.7 µM (inactive) | 26.9 µM (inactive) | 27.9 µM (inactive) | 5.31 µM (inactive) | 24.5 µM (inactive) | 24.4 µM (inactive)
N#Cc1c(-c2ccco2)c2c(n(C3OC(CO)C(O)C(O)C3O)c1=S)CCCC2 (stereo unspecified) | > 100 µM (inactive) | > 100 µM (inactive) | > 100 µM (inactive) | – | > 100 µM (inactive) | > 100 µM (inactive) | > 100 µM (inactive) | > 100 µM (inactive) | > 100 µM (inactive) | > 100 µM (inactive) | > 100 µM (inactive) | > 100 µM (inactive) | > 100 µM (inactive) | – | 85.5 µM (inactive) | – | > 100 µM (inactive) | > 100 µM (inactive) | > 100 µM (inactive)
CCc1c(C)c(C#N)c(=S)n(C2OC(CO)C(O)C(O)C2O)c1C (stereo unspecified) | > 100 µM (inactive) | > 100 µM (inactive) | > 100 µM (inactive) | > 100 µM (inactive) | > 100 µM (inactive) | > 100 µM (inactive) | > 100 µM (inactive) | > 100 µM (inactive) | > 100 µM (inactive) | > 100 µM (inactive) | > 100 µM (inactive) | > 100 µM (inactive) | > 100 µM (inactive) | > 100 µM (inactive) | > 100 µM (inactive) | > 100 µM (inactive) | > 100 µM (inactive) | > 100 µM (inactive) | > 100 µM (inactive)
COC(=O)c1ccccc1C1=C([N+](=O)[O-])C(c2ccccc2)C(C#N)=C(N)O1 (stereo unspecified) | 35.6 µM (inactive) | 10.5 µM (inactive) | > 100 µM (inactive) | 33.7 µM (inactive) | 56 µM (inactive) | > 100 µM (inactive) | 35 µM (inactive) | 23.4 µM (inactive) | 24.7 µM (inactive) | – | > 100 µM (inactive) | > 100 µM (inactive) | > 100 µM (inactive) | 35.9 µM (inactive) | 37.7 µM (inactive) | > 100 µM (inactive) | 30.7 µM (inactive) | > 100 µM (inactive) | 50.1 µM (inactive)
COC(=O)C1=C(O)c2cc(OC)c(OC)c(OC)c2C(c2ccc3c(c2)OCO3)[C@@H]1C(=O)OC (stereo partly specified) | 3.65 µM (inactive) | 25.2 µM (inactive) | 4.97 µM (inactive) | 3.9 µM (inactive) | 2.94 µM (inactive) | 3.03 µM (inactive) | 4.69 µM (inactive) | 7.03 µM (inactive) | 1.99 µM (inactive) | 6.49 µM (inactive) | 2.01 µM (inactive) | 2.18 µM (inactive) | 7.31 µM (inactive) | 2.22 µM (inactive) | – | 3.66 µM (inactive) | 1.53 µM (inactive) | 7.48 µM (inactive) | > 100 µM (inactive)
CCOC(=O)N[C@H]1CCc2cc(O)c(OC)c(OC)c2-c2ccc(SC)c(=O)cc21 | 0.0304 µM (active) | 0.483 µM (active) | 0.113 µM (active) | 0.0136 µM (active) | 0.0154 µM (active) | < 0.01 µM (active) | 0.03 µM (active) | 0.0157 µM (active) | 0.0123 µM (active) | 8 µM (inactive) | 0.0123 µM (active) | 0.0137 µM (active) | < 0.029 µM (active) | < 0.0137 µM (active) | – | < 0.0162 µM (active) | < 0.0144 µM (active) | < 0.0149 µM (active) | 0.0103 µM (active)
Oc1cc(-c2ccccc2)nc2ncccc12 | 0.16 µM (active) | > 100 µM (inactive) | 0.232 µM (active) | 0.0336 µM (active) | 0.0296 µM (active) | 0.0853 µM (active) | 0.0962 µM (active) | 0.203 µM (active) | 0.145 µM (active) | 15 µM (inactive) | 0.0698 µM (active) | 0.109 µM (active) | 0.0743 µM (active) | 0.0438 µM (active) | > 100 µM (inactive) | 0.0927 µM (active) | 0.0396 µM (active) | 0.0303 µM (active) | 0.127 µM (active)
FC(F)(F)c1cccc(-c2nc3ccccc3c3c2[C@@]2(N4CCCC4)CCCC[C@@H]32)c1 | 38.4 µM (inactive) | 28.7 µM (inactive) | – | 30.8 µM (inactive) | 35.6 µM (inactive) | 66.2 µM (inactive) | 28.1 µM (inactive) | 32.4 µM (inactive) | 38.9 µM (inactive) | 35.3 µM (inactive) | 26.2 µM (inactive) | 37.1 µM (inactive) | – | 36.2 µM (inactive) | 76 µM (inactive) | 23.1 µM (inactive) | 23.5 µM (inactive) | 17.8 µM (inactive) | 13.2 µM (inactive)
NCCN1CC2CCC(CC2)C1 | > 10 µM (inactive) | > 10 µM (inactive) | > 10 µM (inactive) | > 10 µM (inactive) | > 10 µM (inactive) | > 10 µM (inactive) | > 10 µM (inactive) | > 10 µM (inactive) | > 10 µM (inactive) | > 10 µM (inactive) | > 10 µM (inactive) | > 10 µM (inactive) | > 10 µM (inactive) | > 10 µM (inactive) | > 10 µM (inactive) | > 10 µM (inactive) | > 10 µM (inactive) | > 10 µM (inactive) | –
